Molecular target: T1, PHKG2 (Homo sapiens, UniProt P15735)
T1 construct: purchased Thermo Fisher Scientific (Life Technologies) SelectScreen
Assay: SelectScreen Z'LYTE
Assay type: biochemical
Method in brief: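 Percent values come from Thermo SelectScreen profiling of NU5455, combining activity and binding assays. CSF1R was run in Z'LYTE format at Km app ATP, and CAMK1 in Adapta format with ATP listed at 10.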

T1 sequence (P15735 whole entry): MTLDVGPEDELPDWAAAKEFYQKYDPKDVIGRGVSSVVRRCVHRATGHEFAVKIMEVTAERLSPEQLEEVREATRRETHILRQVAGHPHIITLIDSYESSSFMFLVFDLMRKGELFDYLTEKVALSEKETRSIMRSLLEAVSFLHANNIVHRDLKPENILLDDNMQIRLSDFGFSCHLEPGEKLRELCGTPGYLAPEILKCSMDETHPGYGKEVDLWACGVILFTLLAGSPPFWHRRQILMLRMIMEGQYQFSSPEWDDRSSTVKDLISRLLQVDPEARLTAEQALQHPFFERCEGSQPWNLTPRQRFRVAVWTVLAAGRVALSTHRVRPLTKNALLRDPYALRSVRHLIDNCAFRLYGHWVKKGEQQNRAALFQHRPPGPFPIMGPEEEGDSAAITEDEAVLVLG

Q: Which inhibition at 1 µM does the source give for `CN(C(=O)CN1CCOCC1)c1ccc2sc3c(-c4cccc5c(=O)cc(N6CC7CCC(C6)O7)oc45)cccc3c2c1` [NU5455] here?
A: -3.6%
